Experimental findings from patent publication US20250129048A1, “MELANOCORTIN 4 RECEPTOR ANTAGONISTS AND USES THEREOF” (Pfizer Inc., priority 2021, published 2025) are described below.

Assay [1] has as its target human Melanocortin-4 receptor (MC4R) (Homo sapiens (Human), UniProt P32245). Description: Functional in vitro MC4R antagonist potency assay (intracellular cAMP, HTRF, CHO cells). It counts as cell-based. As to conditions: cAMP after EC80 agonist stimulation (200 nM αMSH); Kb from IC50 by Leff-Dougall equation; read-out: Kb (nM) Antagonist geometric mean. On the procedure: The functional in vitro antagonist potency for test compounds was determined by monitoring intracellular cyclic adenosine monophosphate (cAMP) levels in Chinese hamster ovary (CHO—) cells stably expressing the human Melanocortin-4 receptor (MC4R). Following agonist activation, human MC4R associates with the G-protein complex causing the Ga subunit to exchange bound GDP for GTP, followed by dissociation of the Gα-GTP complex. The activated Ga subunit can couple to downstream effectors to regulate the levels of second messengers or cAMP within the cell. Thereby, determination of intracellular cAMP levels allows for pharmacological characterization. Intracellular cAMP levels are quantitated using a homogenous assay utilizing the Homogeneous Time-Resolved Fluorescence (HTRF) technology from CisBio. The method is a competitive immunoassay between native cAMP produced by cells and the cAMP labelled with the acceptor dye, d2. The two entities then compete for binding to a monoclonal anti-cAMP antibody labeled with cryptate. The specific signal is inversely proportional to the concentration of cAMP in the cells.
Test compounds were solubilized to 30 mM in 100% dimethyl sulfoxide (DMSO) and stored. An 11-point dilution series using 1 in 3 162-fold serial dilutions was created in 100% DMSO with a top concentration of 800 μM. The serially diluted compound was spotted into a 384-well plate (Greiner, Cat No. 781280) at 40 nL/well with duplicate points at each concentration, and then diluted 1 in 1000 with 40 μL assay buffer containing HBSS, 20 mM HEPES (Invitrogen), 0.1% BSA, and 250 μM IBMX (Sigma Aldrich) to create an intermediate plate at 2× final assay concentration (FAC). The final compound concentration range in the assay was 400 nM to […], with a final DMSO concentration of 0.1%.
In-house generated CHO cells stably expressing the Gs-coupled human MC4R receptor were plated in 384-well assay plates (Corning, Cat No. 3570) in 50 μL/well of Ham's F-12 containing 10% heat inactivated FBS, 1× penicillin/streptomycin, 1 mM Glutamax (Invitrogen) at a density of 2,500 cells per well and incubated at 37° C. (95% O2: 5% CO2) overnight, with micro-clime lids (Labcyte, Cat No. LLS-0310). On day of assay, media was removed from the assay plate through gentle flicking and blotting plate on a paper towel and replaced with 5 μL of 2× antagonist compound in assay buffer (HBSS, 20 mM HEPES, 0.1% BSA, 250 μM IBMX) and 0.1% DMSO. Cells were incubated with compound for 30 minutes at 37° C. (95% O2: 5% CO2) before addition of 5 μL EC80 agonist stimulation (200 nM α-melanocyte stimulating hormone, αMSH, Bachem) and another 30-minute incubation at 37° C. (95% O2: 5% CO2). Intracellular cAMP levels were quantified as per Cisbio's protocol (5 μL of D2 and then 5 μL Cryptate, incubated for 1-2 hours at room temperature). Samples were measured on an Envision plate reader (PerkinElmer Life and Analytical Sciences; excitation, 320 nm; emission, 665 nm/620 nm).
Data were analyzed using the ratio of fluorescence intensity at 620 and 665 nm for each well, extrapolated from the cAMP standard curve to express data as nM cAMP for each well. Data expressed as nM cAMP were then normalized to control wells using Activity Base (IDBS). Zero percent effect (ZPE) was defined as nM of cAMP generated from EC80 agonist stimulation (200 nM αMSH). In the absence of an antagonist control compound, one hundred percent effect (HPE) was defined as nM of cAMP generated from assay buffer/vehicle only.

The target of another assay is hMC4R (Homo sapiens (Human), UniProt P32245). Description: In vitro binding affinity assay using hMC4R (radioligand competition binding, CHO cell membranes). As to conditions: competition with [125I]-(Nle4, D-Phe7)-α-MSH 0.5 nM; Ki from IC50 by Cheng-Prusoff; read-out: Ki (nM) geometric mean. On the procedure:
The binding affinity of test compounds at the α-melanocyte-stimulating hormone receptor (hMC4R) was assessed using a radioligand competition binding assay. Recombinant Chinese hamster ovaries (CHO) cells stably expressing hMC4R (PerkinElmer #ES-191-C) were used for competitive binding. hMC4R membranes were grown in Dulbecco's Modified Essential Medium and Ham's F-12 Medium (DMEM/F12), 10% heat inactivated fetal bovine serum (FBS), 0.4 mg/mL Geneticin and 2 mM L-glutamine. Cell membranes were bulked and frozen until the assay was performed.
Compounds were solubilized in 100% dimethyl sulfoxide (DMSO) to a concentration of 30 mM. A 10-point intermediate dilution series using half log dilutions was created in 100% DMSO with a top concentration of 0.03 mM. The serially diluted compounds were spotted as 1 μL/well, in 96-well Costar 3363 plates. The final compound range in the assay was 300 nM to 0.01 nM with a final DMSO concentration of 1%. Control wells, containing 1 μL of 2 mM ([…]) alpha-melanocyte stimulating hormone (α-MSH-Tocris #2584) was added to the non-specific binding wells and 1 μL 100% DMSO for the total binding control wells. This was followed by the addition of 80 μL of assay buffer [25 mM HEPES, 5 mM MgCl2, 2.5 mM CaCl2, 150 mM NaCl, Complete EDTA-free Protease Inhibitor Tablet (Thermo Scientific #11873580001) and 0.25% BSA]. […] The exact concentration of radioligand used for each experiment was determined by liquid scintillation counting and adjusted if necessary.
Frozen hMC4R cell membranes were thawed and Dounce homogenized. Homogenates were resuspended in assay buffer to a concentration of 2 μg per well. […] The plates were incubated for 2 hours at room temperature. Assay samples were then rapidly filtered through Unifilter-96 GF/B PEI coated filter plates using a filter plate harvester (PerkinElmer) and rinsed with ice-cold wash buffer [25 mM (4-(2-hydroxyethyl)-1-piperazineethanesulfonic acid (HEPES), 1 mM MgCl2, 2.5 mM CaCl2, and 500 mM NaCl]. Filter plates were dried overnight at room temperature. Plates were then bottom-sealed prior to the addition of 50 μL/well Ultima Gold XR scintillation fluid (PerkinElmer 6013111). Plates were then top-sealed, incubated for 60 minutes at room temperature and then the amount of radioactivity present was determined by liquid scintillation counting on a Microbeta Trilux (PerkinElmer #2450-0060).
The raw data (expressed as counts per minute) were analyzed using ActivityBase (IDBS Data Management Software). […] Equilibrium dissociation constant for inhibitor of ligand and receptor interaction (Ki) values were then calculated from the IC50 values using the Cheng-Prusoff equation: Ki=IC50/(1+([L]/Kd)), where [L] is the concentration of the radioligand used in the experiment and Kd is the affinity of the radioligand (determined in separate saturation experiments).

Sequence of human Melanocortin-4 receptor (MC4R) (P32245 whole entry): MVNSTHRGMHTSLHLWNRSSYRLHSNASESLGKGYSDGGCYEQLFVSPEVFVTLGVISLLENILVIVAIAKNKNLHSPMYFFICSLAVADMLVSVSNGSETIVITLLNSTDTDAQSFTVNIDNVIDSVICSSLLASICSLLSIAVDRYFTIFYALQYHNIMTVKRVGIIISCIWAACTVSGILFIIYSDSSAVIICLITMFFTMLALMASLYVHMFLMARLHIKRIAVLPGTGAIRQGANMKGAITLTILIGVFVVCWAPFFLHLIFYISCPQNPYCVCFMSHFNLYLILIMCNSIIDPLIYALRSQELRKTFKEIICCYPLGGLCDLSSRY
Sequence of hMC4R (P32245 whole entry): as above

On to `COc1cccc([C@@H](C)C(=O)N2CC[C@H](Nc3ccc(-c4cn(C)c(C(C)(F)F)n4)c(C)n3)C2)c1` (single isomer, unassigned) [Example 14B], for which, in assay [1], the Kb is 14 nM. The Ki on hMC4R was determined as 0.45 nM.
In the case of `COc1cc([C@@H](C)C(=O)N2CC[C@H](Nc3ccc(-c4ncccn4)c(C)n3)C2)cc(OC(F)F)n1` (single isomer, unassigned) [Example 30A], the Kb in assay [1] was above 62 nM. On hMC4R, the inhibitory constant (Ki) was above 200 nM.
For `COc1cc(OC(F)F)cc([C@@H](C)C(=O)N2CC[C@H](Nc3ccc(-c4ncccn4)c(C)n3)C2)c1` (single isomer, unassigned) [Example 44B] the same measures were 4.1 nM and 0.77 nM.
As to `COc1cc([C@@H](C)C(=O)N2CC[C@H](Nc3ccc(-c4nc5ccccn5n4)c(C)n3)C2)c(Cl)cn1` [Example 18, (2R)-2-(5-chloro-2-methoxypyridin-4-yl)-1-[(3S)-3-{[6-methyl-5-([1,2,4]triazolo[1,5-a]pyridin-2-yl)pyridin-2-yl]amino}pyrrolidin-1-yl]propan-1-one], in assay [1], the antagonist equilibrium constant (Kb) worked out at 2.1 nM. For the same compound, the Ki on hMC4R came to 0.51 nM.
The corresponding values for `COc1ccc(C)c([C@@H](C)C(=O)N2CC[C@H](Nc3ccc(-c4cn(C)cn4)c(C)n3)C2)c1` (single isomer, unassigned) [Example 20B] are 2.9 nM and 0.23 nM.
For `COc1cc([C@@H](C)C(=O)N2CC[C@H](Nc3ccc(-c4nc(C(F)F)n(C5CC5)n4)c(C)n3)C2)c(F)cn1` [Example 8, (2R)-1-[(3S)-3-({5-[1-cyclopropyl-5-(difluoromethyl)-1H-1,2,4-triazol-3-yl]-6-methylpyridin-2-yl}amino)pyrrolidin-1-yl]-2-(5-fluoro-2-methoxypyridin-4-yl)propan-1-one] the same measures were 19 nM and 1.2 nM.
The corresponding values for `COc1cc([C@@H](C)C(=O)N2CC[C@H](Nc3ccc(-c4nc5ccccn5n4)c(C)n3)C2)c(F)cn1` [Example 43, (2R)-2-(5-fluoro-2-methoxypyridin-4-yl)-1-[(3S)-3-{[6-methyl-5-([1,2,4]triazolo[1,5-a]pyridin-2-yl)pyridin-2-yl]amino}pyrrolidin-1-yl]propan-1-one] are 9.5 nM and 0.91 nM.
For the compound `COc1cc([C@@H](C)C(=O)N2CC[C@H](Nc3ccc(-c4nnn(C)n4)c(C)n3)C2)c(Cl)cn1` [Example 1, (2R)-2-(5-chloro-2-methoxypyridin-4-yl)-1-[(3S)-3-{[6-methyl-5-(2-methyl-2H-tetrazol-5-yl)pyridin-2-yl]amino}pyrrolidin-1-yl]propan-1-one], in assay [1], the Kb is 5.1 nM. Further, the Ki on hMC4R is 0.88 nM.
The corresponding values for `COc1cc([C@@H](C)C(=O)N2CC[C@H](Nc3ccc(-c4cn(C)c(C(F)F)n4)c(C)n3)C2)cc(OC)n1` (single isomer, unassigned) [Example 12A] are 1.9 nM and 0.31 nM.
For `COc1cc([C@@H](C)C(=O)N2CC[C@H](Nc3ccc(-c4nnn(C)n4)c(C)n3)C2)c(F)cn1` [Example 5, (2R)-2-(5-fluoro-2-methoxypyridin-4-yl)-1-[(3S)-3-{[6-methyl-5-(2-methyl-2H-tetrazol-5-yl)pyridin-2-yl]amino}pyrrolidin-1-yl]propan-1-one] the same measures were 17 nM and 2.6 nM.
The corresponding values for `COc1cc([C@@H](C)C(=O)N2CC[C@H](Nc3ccc(-c4ncccn4)c(C)n3)C2)cc(OC(F)F)n1` (single isomer, unassigned) [Example 30B] are 6.8 nM and 0.93 nM.
For the compound `[2H]C([2H])([2H])n1nc(-c2ccc(N[C@H]3CCN(C(=O)[C@H](C)c4cc(OC)ncc4F)C3)nc2C)nc1C(F)(F)F` [Example 42, (2R)-2-(5-fluoro-2-methoxypyridin-4-yl)-1-[(3S)-3-({6-methyl-5-[1-(^2H3)methyl-5-(trifluoromethyl)-1H-1,2,4-triazol-3-yl]pyridin-2-yl}amino)pyrrolidin-1-yl]propan-1-one], in assay [1], the Kb turned out to be 5.4 nM. Further, the inhibitory constant (Ki) at hMC4R amounted to 1.3 nM.
For `Cc1nc(N[C@H]2CCN(C(=O)Cc3ccc(F)cc3)C2(C)C)ccc1-c1cn(C)cn1` [Example 3B, 1-[(3S)-2,2-dimethyl-3-{[6-methyl-5-(1-methyl-1H-imidazol-4-yl)pyridin-2-yl]amino}pyrrolidin-1-yl]-2-(4-fluorophenyl)ethan-1-one] the same measures were 33 nM and 4.2 nM.
For `COc1cc([C@@H](C)C(=O)N2CC[C@H](Nc3ccc(-c4nc(C(F)(F)F)n(C)n4)c(C)n3)C2)c(Cl)cn1` (single isomer, unassigned) [Example 25B] the same measures were 1.8 nM and 0.49 nM.
`COc1cc([C@@H](C)C(=O)N2CC[C@H](Nc3ccc(-c4nnn(C)n4)c(C)n3)C2)c(C)cn1` (single isomer, unassigned) [Example 26B]: in assay [1], the antagonist dissociation constant (Kb) amounted to 5.6 nM. Besides, the inhibitory constant (Ki) on hMC4R stood at 2.1 nM.
The corresponding values for `COc1cc([C@@H](C)C(=O)N2CC[C@H](Nc3ccc(-c4nc(C(F)F)n(C)n4)c(C)n3)C2)nc(C)n1` (single isomer, unassigned) [Example 41B] are 3.6 nM and 2 nM.
The corresponding values for `COc1cc(OC)cc([C@@H](C)C(=O)N2CC[C@H](Nc3ccc(-c4nc(C(F)(F)F)n(C)n4)c(C)n3)C2)c1` [Example 39, (2R)-2-(3,5-dimethoxyphenyl)-1-[(3S)-3-({6-methyl-5-[1-methyl-5-(trifluoromethyl)-1H-1,2,4-triazol-3-yl]pyridin-2-yl}amino)pyrrolidin-1-yl]propan-1-one] are 3.3 nM and 0.28 nM.
